From patent US20210101928A1 (Sage Therapeutics, Inc., priority 2017, published 2021)

What follows are compounds tested against GABAA receptor ([35S]-TBPS binding, rat brain cortical membranes) (assay: Steroid inhibition of [35S]-TBPS binding). Conditions: Table I-1, 3 nM [35S]-TBPS, in the presence of 5 mM GABA, read-out: TBPS binding IC50.
Experimental: [^35S]-t-Butylbicyclophosphorothionate (TBPS) binding assays using rat brain cortical membranes in the presence of 5 mM GABA has been described (Gee et al, J. Pharmacol. Exp. Ther. 1987, 241, 346-353; Hawkinson et al, Mol. Pharmacol. 1994, 46, 977-985; Lewin, A. H et al., Mol. Pharmacol. 1989, 35, 189-194).
Briefly, cortices are rapidly removed following decapitation of carbon dioxide-anesthetized Sprague-Dawley rats (200-250 g). The cortices are homogenized in 10 volumes of ice-cold 0.32 M sucrose using a glass/teflon homogenizer and centrifuged at 1500×g for 10 min at 4° C. The resultant supernatants are centrifuged at 10,000×g for 20 min at 4° C. to obtain the P2 pellets. The P2 pellets are resuspended in 200 mM NaCl/50 mM Na—K phosphate pH 7.4 buffer and centrifuged at 10,000×g for 10 min at 4° C. This washing procedure is repeated twice and the pellets are resuspended in 10 volumes of buffer. Aliquots ([…]) of the membrane suspensions are incubated with 3 nM [^35S]-TBPS and […] aliquots of test drug dissolved in dimethyl sulfoxide (DMSO) (final 0.5%) in the presence of 5 mM GABA. The incubation is brought to a final volume of 1.0 mL with buffer. Nonspecific binding is determined in the presence of […] and ranged from 15 to 25%. Following a 90 min incubation at room temp, the assays are terminated by filtration through glass fiber filters (Schleicher and Schuell No. 32) using a cell harvester (Brandel) and rinsed three times with ice-cold buffer. Filter bound radioactivity is measured by liquid scintillation spectrometry. Non-linear curve fitting of the overall data for each drug averaged for each concentration is done using Prism (GraphPad). […] The concentration of test compound producing 50% inhibition (IC50) of specific binding and the maximal extent of inhibition (Imax) are determined for the individual experiments with the same model used for the overall data and then the means±SEM.s of the individual experiments are calculated.
Various compounds are or can be screened to determine their potential as modulators of [^35S]-TBPS binding in vitro. These assays are or can be performed in accordance with the above.

SMILES	IC50 [nM]
Cc1nnnn1CC(=O)[C@H]1CC[C@H]2[C@@H]3CC[C@]4(C)C[C@](C)(O)CC[C@]4(C)[C@H]3CC[C@]12C [I-A8, 1-((3R,5R,8S,9S,10R,13S,14S,17S)-3-hydroxy-3,5,10,13-tetramethylhexadecahydro-1H-cyclopenta[a]phenanthren-17-yl)-2-(5-methyl-1H-tetrazol-1-yl)ethan-1-one]	100 to 1000
Cc1nnn(CC(=O)[C@H]2CC[C@H]3[C@@H]4CC[C@]5(C)C[C@](C)(O)CC[C@]5(C)[C@H]4CC[C@]23C)n1 [I-A9, 1-((3R,5R,8S,9S,10R,13S,14S,17S)-3-hydroxy-3,5,10,13-tetramethylhexadecahydro-1H-cyclopenta[a]phenanthren-17-yl)-2-(5-methyl-2H-tetrazol-2-yl)ethan-1-one]	100 to 1000
CC(=O)[C@H]1CC[C@H]2[C@@H]3CC[C@]4(C)C[C@](C)(O)CC[C@]4(C)[C@H]3CC[C@]12C [I-B6, 1-((3R,5R,8S,9S,10R,13S,14S,17S)-3-hydroxy-3,5,10,13-tetramethylhexadecahydro-1H-cyclopenta [a]phenanthren-17-yl)ethan-1-one]	100 to 1000

Same assay, conditions: Table II-2, 3 nM [35S]-TBPS, in the presence of 5 mM GABA, read-out: TBPS IC50

SMILES	IC50 [nM]
CC[C@]12CC[C@@](C)(O)C[C@H]1CC[C@H]1[C@@H]3CC[C@H](C(=O)N4CC[C@@H](c5ccccc5)C4)[C@@]3(C)CC[C@@H]12 [II-1]	10 to 100
CC[C@]12CC[C@@](C)(O)C[C@H]1CC[C@H]1[C@@H]3CC[C@H](C(=O)Cn4nccn4)[C@@]3(C)CC[C@@H]12 [II-13, 1-((3R,5R,8S,9S,10S,13S,14S,17S)-10-ethyl-3-hydroxy-3,13-dimethylhexadecahydro-1H-cyclopenta[a]phenanthren-17-yl)-2-(2H-1,2,3-triazol-2-yl)ethan-1-one]	< 10
CC[C@]12CC[C@@](C)(O)C[C@H]1CC[C@H]1[C@@H]3CC[C@H](C(=O)Cn4ccnn4)[C@@]3(C)CC[C@@H]12 [II-13a, 1-((3R,5R,8S,9S,10S,13S,14S,17S)-10-ethyl-3-hydroxy-3,13-dimethylhexadecahydro-1H-cyclopenta[a]phenanthren-17-yl)-2-(1H-1,2,3-triazol-1-yl)ethan-1-one]	< 10
CC[C@]12CC[C@@](C)(O)C[C@H]1CC[C@H]1[C@@H]3CC[C@H](C(=O)Cn4nnc(C)n4)[C@@]3(C)CC[C@@H]12 [II-14, 1-((3R,5R,8S,9S,10S,13S,14S,17S)-10-ethyl-3-hydroxy-3,13-dimethylhexadecahydro-1H-cyclopenta[a]henanthren-17-yl)-2-(5-methyl-2H-tetrazol-2-yl)ethan-1-one]	< 10
CC[C@]12CC[C@@](C)(O)C[C@H]1CC[C@H]1[C@@H]3CC[C@H](C(=O)Cn4nnnc4C)[C@@]3(C)CC[C@@H]12 [II-14a, 1-((3R,5R,8S,9S,10S,13S,14S,17S)-10-ethyl-3-hydroxy-3,13-dimethylhexadecahydro-1H-cyclopenta[a]phenanthren-17-yl)-2-(5-methyl-1H-tetrazol-1-yl)ethan-1-one]	< 10
CC[C@]12CC[C@@](C)(O)C[C@H]1CC[C@H]1[C@@H]3CC[C@H](C(=O)N4CCCC[C@@H]4C)[C@@]3(C)CC[C@@H]12 [II-20, ((3R,5R,8S,9S,10S,13S,14S,17S)-10-ethyl-3-hydroxy-3,13-dimethylhexadecahydro-1H-cyclopenta[a]phenanthren-ren-17-yl)((S)-2-methylpiperidin-1-yl)methanone]	10 to 100
CC[C@H]1CCCCN1C(=O)[C@H]1CC[C@H]2[C@@H]3CC[C@@H]4C[C@](C)(O)CC[C@]4(CC)[C@H]3CC[C@]12C [II-21, ((3R,5R,8S,9S,10S,13S,14S,17S)-10-ethyl-3-hydroxy-3,13-dimethylhexadecahydro-cyclopenta[a]phenanthren-17-yl)((S)-2-ethylpiperidin-1-yl)methanone]	10 to 100
CC[C@@H]1CCCCN1C(=O)[C@H]1CC[C@H]2[C@@H]3CC[C@@H]4C[C@](C)(O)CC[C@]4(CC)[C@H]3CC[C@]12C [II-21a, ((3R,5R,8S,9S,10S,13S,14S,17S)-10-ethyl-3-hydroxy-3,13-dimethylhexadecahydro-1H-cyclopenta[a]phenanthren-17-yl)((R)-2-ethylpiperidin-1-yl)methanone]	10 to 100
CC[C@]12CC[C@@](C)(O)C[C@H]1CC[C@H]1[C@@H]3CC[C@H](C(N)=O)[C@@]3(C)CC[C@@H]12 [II-22, (3R,5R,8S,9S,10S,13S,14S,17S)-10-ethyl-3-hydroxy-3,13-dimethylhexadecahydro-1H-cyclopenta[a]phenanthrene-17-carboxamide]	100 to 1000
CCOC[C@@]1(O)CC[C@@]2(CC)[C@H](CC[C@H]3[C@@H]4CC[C@H](C(=O)Nc5ccc(C#N)cc5C)[C@@]4(C)CC[C@@H]32)C1 [II-43, (3R,5R,8S,9S,10S,13S,14S,17S)-N-(4-cyano-2-methylphenyl)-3-(ethoxymethyl)-10-ethyl-3-hydroxy-13-methylhexadecahydro-1H-cyclopenta[a]phenanthrene-17-carboxamide]	< 10
CCOC[C@@]1(O)CC[C@@]2(CC)[C@H](CC[C@H]3[C@@H]4CC[C@H](C(=O)N5CCCC[C@@H]5C)[C@@]4(C)CC[C@@H]32)C1 [II-44, ((3R,5R,85,95,10S,13S,14S,17S)-3-(ethoxymethyl)-10-ethyl-3-hydroxy-13-methylhexadecahydro-1H-cyclopenta[a]phenanthren-17-yl)((S)-2-methylpiperidin-1-yl)methanone]	100 to 1000
CCOC[C@@]1(O)CC[C@@]2(CC)[C@H](CC[C@H]3[C@@H]4CC[C@H](C(=O)N5CCCC[C@H]5C)[C@@]4(C)CC[C@@H]32)C1 [II-45, ((3R,5R,8S,9S,10S,13S,14S,17S)-3-(ethoxymethyl)-10-ethyl-3-hydroxy-13-methylhexadecahydro-1H-cyclopenta[a]phenanthren-17-yl)((R)-2-methylpiperidin-1-yl)methanone]	10 to 100
CCOC[C@@]1(O)CC[C@@]2(CC)[C@H](CC[C@H]3[C@@H]4CC[C@H](C(=O)Nc5ccccc5)[C@@]4(C)CC[C@@H]32)C1 [II-46, (3R,5R,85,95,10S,13S,14S,17S)-3-(ethoxymethyl)-10-ethyl-3-hydroxy-13-methyl-N-phenylhexadecahydro-1H-cyclopenta[a]phenanthrene-17-carboxamide]	10 to 100
CCOC[C@@]1(O)CC[C@@]2(CC)[C@H](CC[C@H]3[C@@H]4CC[C@H](C(=O)Nc5ccccc5C)[C@@]4(C)CC[C@@H]32)C1 [II-47, (3R,5R,8S,9S,10S,13S,14S,17S)-3-(ethoxymethyl)-10-ethyl-3-hydroxy-13-methyl-N-(o-tolyl)hexadecahydro-1H-cyclopenta[a]phenanthrene-17-carboxamide]	< 10
CCOC[C@@]1(O)CC[C@@]2(CC)[C@H](CC[C@H]3[C@@H]4CC[C@H](C(N)=O)[C@@]4(C)CC[C@@H]32)C1 [II-48, (3R,5R,8S,9S,10S,13S,14S,17S)-3-(ethoxymethyl)-10-ethyl-3-hydroxy-13-methylhexadecahydro-1H-cyclopenta[a]phenanthrene-17-carboxamide]	100 to 1000
CCOC[C@@]1(O)CC[C@@]2(CC)[C@H](CC[C@H]3[C@@H]4CC[C@H](C(=O)N5CCCC[C@@H]5c5ccc(F)cc5)[C@@]4(C)CC[C@@H]32)C1 [II-50, ((3R,5R,8S,9S,10S,13S,14S,17S)-3-(ethoxymethyl)-10-ethyl-3-hydroxy-13-methylhexadecahydro-1H-cyclopenta[a]phenanthren-17-yl)((R)-2-(4-fluorophenyl)piperidin-1-yl)methanone]	100 to 1000
CCOC[C@@]1(O)CC[C@@]2(CC)[C@H](CC[C@H]3[C@@H]4CC[C@H](C(=O)N5CCCC[C@H]5c5ccc(F)cc5)[C@@]4(C)CC[C@@H]32)C1 [II-51, ((3R,5R,8S,9S,10S,13S,14S,17S)-3-(ethoxymethyl)-10-ethyl-3-hydroxy-13-methylhexadecahydro-1H-cyclopenta[a]phenanthren-17-yl)((S)-2-(4-fluorophenyl)piperidine-1-yl)methanone]	10 to 100
CCOC[C@@]1(O)CC[C@@]2(CC)[C@@H](CC[C@H]3[C@@H]4CC[C@H](C(=O)Nc5ccc(C#N)cc5C)[C@@]4(C)CC[C@@H]32)C1 [II-63]	10 to 100
